Experimental data: patent US20230355553A1, “COMPOSITIONS AND METHODS FOR TREATING AND/OR PREVENTING OCULAR DISORDERS” (University of Virginia Patent Foundation, priority 2020, published 2023)

What was measured:
cataract formation = experiment: Cataract formation after administration of fluoxetine preparations to the eye; format: in vivo
secreted IL-18 = experiment: ELISA of secreted cytokine from human ARPE-19 cells; format: cell-based; conditions: Alu RNA (FIG. 4A), Fluoxetine 10 µM, P < 0.005
[1] = system: Alu RNA-induced RPE degeneration; experiment: Alu RNA-induced RPE degeneration in mice, racemic fluoxetine vs enantiomers (fundus photos); format: in vivo, mouse; conditions: subretinal Alu RNA 180 ng, 172 ng drug intravitreous, 7 days
Protocol: In vitro transcribed Alu RNA (SEQ ID NO: 1; 180 ng) was injected into the subretinal space of mice and 172 ng racemic fluoxetine (TCI Chemicals, Portland, Oregon, United States of America) or enantiomers of fluoxetine (Santa Cruz Biotechnology, Inc., Dallas, Texas, United States of America) was injected into the vitreous humor. Fundus photos were captured 7 days later. […] Arrowheads show the extent and intensity of degeneration of the retinal pigmented epithelium (RPE).

ASC specks = experiment: ASC speck assay in BMDMs; format: cell-based, mouse; conditions: Alu RNA-transfected BMDMs; Fluoxetine 10 µM pretreatment 2 hours; n = 5; P = 0.006
Protocol: The ASC speck assay was employed as a measure of inflammasome activation. BMDMs seeded on chambered coverslips (30,000 cells/well) for 12 hours were pretreated with Fluoxetine (10 µM) or 0.1% DMSO (control) for 2 hours. Cells were transfected with Alu RNA (SEQ ID NO: 1) using LIPOFECTAMINE™ 3000 brand transfection reagent (Thermo Fisher Scientific, Waltham, Massachusetts, United States of America) for 12 hours. Coverslips were fixed with 2% paraformaldehyde (15 minutes at room temperature), washed with PBS, permeabilized, blocked with blocking buffer (PBS, 0.1% TX-100, 5% normal goat serum; 1 hour at 4° C.) and incubated with anti-ASC antibody (Adipogen; 1:300) with blocking buffer. Nuclei were stained with DAPI. Slides mounted using FLUOROMOUNT-G® brand mounting medium (SouthernBiotech, Birmingham, Alabama, United States of America) were imaged by confocal microscopy (Nikon A1R). The numbers of specks per 40x field were compared by two-tailed Student’s t test.

caspase-1 activation [2] = experiment: Western blot of Alu RNA-induced caspase-1 activation in human ARPE19 cells; format: cell-based; conditions: Alu RNA-transfected human ARPE19 cells, Fluoxetine 10 µM, n = 3 per group
Protocol: (§1) Cell culture. The human retinal pigment epithelial cell line ARPE-19 (ATCC) was maintained in Dulbecco’s Modified Eagle Medium (DMEM) supplemented with 10% fetal bovine serum (FBS) and standard antibiotics. Mouse bone marrow derived macrophages (BMDMs) were cultured in Iscove’s modified Dulbecco’s media (IMDM) with 10% FBS and 20% L929 supernatants. All cells were maintained at 37° C. in a 5% CO2 environment.
(§2) In order to test for the ability of fluoxetine to inhibit inflammasome activation, cells were transfected with (SEQ ID NO: 1) RNA or mock-transfected for 12 hour and pre-treated with Fluoxetine (10 µM) for 1 hour and again after Alu RNA (SEQ ID NO: 1) transfection. Supernatants were collected and were briefly spun down to remove floating cells. Proteins from the cell-free supernatant were precipitated by adding sodium deoxycholate (0.15% final) followed by adding TCA (7.2% final) and incubating on ice overnight. Samples were spun down at 13000 × g for 30 minutes and pellets were washed 2 times with ice-cold acetone. Precipitated proteins solubilized in 4X LDS Buffer with 2-mercaptoethanol were resolved by SDS-PAGE on NOVEX® brand Tris-Glycine Gels (Invitrogen Corporation, Carlsbad, California, United States of America) and transferred onto Immobilon-FL PVDF membranes (MilliporeSigma, Burlington, Massachusetts, United States of America). […]

dry macular degeneration = experiment: Health insurance claims analysis (PearlDiver database) of dry macular degeneration among patients with depression; format: in vivo, human
Text: Data on patients with commercial health insurance was obtained from the PearlDiver Patient Records Database (Colorado Springs, Colorado, United States of America), which captures health care claims and medication usage for persons in the Humana network from 2007 to 2017. These de-identified data are Health Insurance Portability and Accountability Act-compliant and were deemed by the University of Virginia Institutional Review Board (IRB; University of Virginia, Charlottesville, United States of America) as exempt from IRB approval requirements.
Patients were included in the analysis if they had continuous enrollment in the plan for at least 1 year and had at least 2 medical claims of Depression and were at least 50 years of age at baseline. Individuals with pre-existing Dry Macular Degeneration (1 or more medical claims prior to diagnosis of Depression) were excluded. Disease claims were identified by International Classification of Diseases (ICD)-9-CM and ICD-10-CM codes.
Individuals were classified as receiving Fluoxetine if they filled one or more outpatient pharmacy prescriptions for generic or brand versions, either in sole form or as a combination medication, as identified by National Drug Codes of the Food and Drug Administration (FDA) of the United States.
Time to initial diagnosis of Dry Macular Degeneration, which was confirmed by 2 or more medical claims, was the dependent variable for this analysis.
To analyze the risk of Dry Macular Degeneration between those exposed to Fluoxetine and those not exposed to Fluoxetine, an adjusted Cox proportional hazards model was fit. The adjusted model included as covariates age, gender, race, smoking, and body mass index.
The event rates of dry macular degeneration in the general population and in the depression cohort are shown. Fluoxetine use was associated with a crude risk reduction of 28%. P < 0.0001 by χ2 test. Fluoxetine use was associated with a reduction in the hazard of developing dry macular degeneration. P < 0.0001 by likelihood ratio test.

secreted IL-1β = experiment: ELISA of secreted cytokine from mouse bone marrow derived macrophages; format: cell-based; conditions: mouse BMDMs, B2 RNA (FIG. 3B), Fluoxetine 10 µM, P = 0.01
caspase-1 activation [3] = experiment: Western blot of Alu RNA-induced caspase-1 activation in mouse BMDMs; format: cell-based; conditions: Alu RNA-transfected mouse BMDMs, Fluoxetine 10 µM, n = 3 per group
Protocol: as §1, §2

[4] = system: amyloid beta-induced RPE degeneration; experiment: Oligomerized amyloid beta-induced RPE degeneration in mice (fundus photos); format: in vivo, mouse; conditions: subretinal oligomerized amyloid beta, fluoxetine 172 ng intravitreous, 7 days
Protocol: The ability of fluoxetine to inhibit RPE degeneration induced by oligomerized amyloid beta was also tested. Oligomerized amyloid beta (0.6 micromoles; AnaSpec Inc., Fremont, California, United States of America) was injected into the subretinal space and fluoxetine (172 ng; TCI Chemicals) was injected into the vitreous humor. Fundus photos were captured 7 days later.

[5] = system: Alu RNA-induced RPE degeneration; experiment: Alu RNA-induced RPE degeneration in mice (ZO-1-stained RPE flat mounts); format: in vivo, mouse; conditions: subretinal Alu RNA 300 ng, drug 1 mM in 0.5 µl intravitreous 24 hours before and immediately after, 7 days
Protocol: Animals. Animal experiments were approved by the University of Virginia (UVA) Institutional Animal Care and Use Committee. C57BL/6J mice (The Jackson Laboratory) were anesthetized with ketamine hydrochloride and xylazine.
The ability of various antidepressant drugs to inhibit Alu RNA (SEQ ID NO: 1) induced RPE degeneration was tested in mice. In vitro transcribed Alu RNA (SEQ ID NO: 1; 300 ng in 1 µl) or vehicle control (PBS) were injected subretinally into mice. Fluoxetine (FLX), Citalopram (CIT), Paroxetine (PAR), Sertraline (SER), Escitalopram (ESC), Venlafaxine (VEN), Imipramine (IMI), Amitriptyline (AMI), Agomelatine (AGO; all from Cayman Chemical Company, Ann Arbor, Michigan, United States of America; 1 mM in 0.5 µl), or PBS was injected into the vitreous humor 24 hours before and immediately after Alu RNA (SEQ ID NO: 1) injections. Animals were euthanized 7 days after Alu RNA (SEQ ID NO: 1) injection, and the eyes were enucleated.
RPE health was assessed by immunofluorescence staining of zonula occludens-1 (ZO-1) on RPE flat mounts. Flat mounts were fixed with 2% paraformaldehyde, stained with rabbit polyclonal antibodies against mouse ZO-1 (Invitrogen; 1:100), and visualized with Alexa-594 (Invitrogen), and imaged using an A1R Nikon confocal microscope. Images were graded as healthy or degenerated in masked fashion. […]

Row | cataract formation, share of subjects (cataract formation) | SMILES | secreted IL-18 (FIG. 4A) (secreted IL-18) | RPE degeneration extent and intensity (fundus photos) [1] | ASC speck formation (number of specks per 40x field) (ASC specks) | caspase-1 activation (cleavage of pro-caspase-1 into active caspase-1) (caspase-1 activation [2]) | Hazard Ratio (95% Confidence Interval) of developing dry macular degeneration (dry macular degeneration; Fluoxetine Use Yes vs. No, multivariate Cox regression corrected for age, gender, race, smoking, body mass index) | crude risk reduction of dry macular degeneration (dry macular degeneration; Fluoxetine use vs no use, P < 0.0001 by χ2 test) [%] | rate of developing dry macular degeneration (Kaplan-Meier) (dry macular degeneration; Fluoxetine use, log rank test P < 0.0001 (FIG. 7)) | Event Rate of dry macular degeneration (dry macular degeneration; Fluoxetine users (Ever), depression cohort) [%] | Dry Macular Degeneration (#) (dry macular degeneration; Fluoxetine users (Ever), depression cohort, age at least 50, 84,603 total patients) | secreted IL-1β (FIG. 3B) (secreted IL-1β) | caspase-1 activation (cleavage of pro-caspase-1 into active caspase-1) (caspase-1 activation [3]) | RPE degeneration extent and intensity (fundus photos) [4] | RPE degeneration (percentage of eyes with RPE degeneration) [5]
1 | up to 50% | CNCCC(Oc1ccc(C(F)(F)F)cc1)c1ccccc1 (racemic) [Fluoxetine, N-methyl-3-phenyl-3-[4-(trifluoromethyl)phenoxy]propan-1-amine] | statistically significantly reduced | reduced the RPE degeneration extent and intensity, although the protection was partial | inhibited | reduced | 0.590 (0.565, 0.616) | 28 | slower rate | 3.5 | 3,000 | statistically significantly reduced | reduced | reduced the RPE degeneration extent and intensity | significantly reduced
2 | – | CNCC[C@@H](Oc1ccc(C(F)(F)F)cc1)c1ccccc1 [R-fluoxetine] | – | more complete protection | – | – | – | – | – | – | – | – | – | – | –
3 | – | CNCC[C@H](Oc1ccc(C(F)(F)F)cc1)c1ccccc1 [S-fluoxetine] | – | more complete protection | – | – | – | – | – | – | – | – | – | – | –
